Measurements from US8097440B1, “Engineered microorganisms capable of producing target compounds under anaerobic conditions” (Gevo, Inc., priority 2008, dated 2012).

Tests used:
[1] = molecular target: T1, E. coli KARI Ec_IlvC variant Ec_IlvC^B8-his6 (Q110V, S78D), SEQ ID NO: 27 (Escherichia coli, UniProt P05793, Q110V/S78D); assay: KARI cuvette assay, purified Ec_IlvC^B8-his6; type: biochemical
T1 sequence (P05793 with tags, fused parts or gaps S78D/Q110V): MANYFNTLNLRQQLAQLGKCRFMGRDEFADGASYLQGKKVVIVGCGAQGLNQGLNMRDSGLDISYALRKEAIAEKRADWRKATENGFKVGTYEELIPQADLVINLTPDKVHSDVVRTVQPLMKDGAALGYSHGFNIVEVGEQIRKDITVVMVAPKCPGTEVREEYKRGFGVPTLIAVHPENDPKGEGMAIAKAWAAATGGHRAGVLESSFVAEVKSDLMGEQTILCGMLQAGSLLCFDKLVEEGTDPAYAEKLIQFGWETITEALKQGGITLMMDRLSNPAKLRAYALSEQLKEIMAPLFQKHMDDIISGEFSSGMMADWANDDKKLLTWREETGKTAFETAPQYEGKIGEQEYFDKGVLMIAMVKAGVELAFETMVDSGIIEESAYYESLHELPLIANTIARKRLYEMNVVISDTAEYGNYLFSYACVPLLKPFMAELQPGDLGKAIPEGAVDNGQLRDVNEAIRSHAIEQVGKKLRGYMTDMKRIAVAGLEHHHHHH
Experimental: (§1) KARI cuvette assay: KARI activity was assayed kinetically by monitoring the decrease in NAD(P)H concentration by measuring the absorbance at 340 nm. A reaction buffer was prepared containing 250 mM potassium phosphate pH 7, 1 mM DTT and 10 mM MgCl2. Cell pellets were resuspended (0.25 g wet weight/mL buffer) in 250 mM potassium phosphate (KPi) buffer containing 1 mM DTT and 10 mM MgCl2. The resuspended cells were lysed by sonication for 1 min with a 50% duty cycle and pelleted at 11000×g and 4° C. for 15 min. A reaction mixture consisting of 910 μl reaction buffer, 50 μl acetolactate, and 20 μl lysate was prepared in a cuvette. The reaction was initiated by addition of 20 μL of 10 mM NAD(P)H. A substrate free control was conducted using reaction buffer without the addition of acetolactate.
(§2) Purification of KARI: Cell pellets used for purification were resuspended in purification buffer A (20 mM Tris, 20 mM imidazol, 100 mM NaCl, 10 mM MgCl2, pH 7.4). KARI was purified by IMAC (Immobilized metal affinity chromatography) over a 1 ml Histrap High Performance (histrap HP) column pre-charged with Nickel (GE Healthcare) using an Akta FPLC system (GE Healthcare). […]

[2] = molecular target: T2, E. coli KARI Ec_IlvC variant Ec_IlvC^Q110A-his6 (Q110A), SEQ ID NO: 21 (Escherichia coli, UniProt P05793, Q110A); assay: KARI cuvette assay, purified Ec_IlvC^Q110A-his6; type: biochemical; details: relative to Ec_IlvC^his6 with NADPH
T2 sequence (P05793 with tags, fused parts or gaps Q110A): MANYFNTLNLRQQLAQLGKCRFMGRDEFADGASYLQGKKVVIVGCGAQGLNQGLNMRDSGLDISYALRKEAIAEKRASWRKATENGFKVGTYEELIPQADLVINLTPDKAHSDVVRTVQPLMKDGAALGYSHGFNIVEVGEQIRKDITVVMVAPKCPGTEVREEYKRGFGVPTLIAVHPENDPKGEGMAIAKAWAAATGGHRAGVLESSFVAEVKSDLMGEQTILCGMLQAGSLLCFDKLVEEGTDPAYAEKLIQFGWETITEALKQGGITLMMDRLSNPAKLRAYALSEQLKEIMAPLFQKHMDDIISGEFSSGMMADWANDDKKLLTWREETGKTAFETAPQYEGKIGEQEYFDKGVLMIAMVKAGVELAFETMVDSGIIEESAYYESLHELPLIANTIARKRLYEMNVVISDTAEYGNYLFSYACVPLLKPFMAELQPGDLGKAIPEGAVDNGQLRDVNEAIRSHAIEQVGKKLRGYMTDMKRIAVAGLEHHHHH
Experimental: as §1, §2

## NC(=O)C1=CN([C@@H]2O[C@H](COP(=O)(O)OP(=O)(O)OC[C@H]3O[C@@H](n4cnc5c(N)ncnc54)[C@H](O)[C@@H]3O)[C@@H](O)[C@H]2O)C=CC1 [NADH, nicotinamide adenine dinucleotide]
[1]; purified, acetolactate as substrate
  kcat/KM: 31775 M⁻¹ s⁻¹
[1]; relative to Ec_IlvC^his6 with NADPH
  (kcat/KM with NADH)/(kcat/KM of Ec_IlvC^his6 with NADPH): 36%
[2]
  (kcat/KM with NADH)/(kcat/KM of Ec_IlvC^his6 with NADPH): 13%
